For five molecules, melting point results are on record in article PMC11351550, “Synthesis, Cytotoxicity and Antioxidant Activity Evaluation of Some Thiazolyl–Catechol Compounds” (Antioxidants, 2024).

Where a name gives a salt, the structure may show the parent alone.

`Cc1ccc(-c2nc(-c3nc(-c4ccc(O)c(O)c4)cs3)cs2)cc1` (as salt: hydrochloride) [Compound 3j, 4-(2′-(p-tolyl)-[2,4′-bithiazol]-4-yl)benzene-1,2-diol] gave a melting point of 265 °C.

In turn, `Oc1ccc(-c2csc(-c3ccncc3)n2)cc1O` (as salt: hydrochloride) [Compound 3g, 4-(2-(pyridin-4-yl)thiazol-4-yl)benzene-1,2-diol] yielded a melting point of 240 °C.

Regarding `Cc1cccc(-c2nc(-c3ccc(O)c(O)c3)cs2)c1` (as salt: hydrochloride) [Compound 3e, 4-(2-(m-tolyl)thiazol-4-yl)benzene-1,2-diol], the melting point was found to be 196 °C.

Consider `Oc1ccc(-c2csc(-c3csc(-c4ccccc4)n3)n2)cc1O` (as salt: hydrochloride) [Compound 3i, 4-(2′-phenyl-[2,4′-bithiazol]-4-yl)benzene-1,2-diol], for which the melting point was 258 °C.

`COc1cc(-c2nc(-c3ccc(O)c(O)c3)cs2)cc(OC)c1OC` (as salt: hydrochloride) [Compound 3f, 4-(2-(3,4,5-trimethoxyphenyl)thiazol-4-yl)benzene-1,2-diol] displayed a melting point of 219 °C.
